The text below walks through data of article PMC10455244, “Alpha-Mangostin: A Potent Inhibitor of TRPV3 and Pro-Inflammatory Cytokine Secretion in Keratinocytes” (International Journal of Molecular Sciences, 2023).

The structures appear in SMILES notation.

In this assay the test system is IL-6. Nature of the assay: ELISA, carvacrol-induced IL-6 release in NHEK. Format: cell-based, human. The note with it: 1 µM with 300 µM carvacrol, 24 h. The text has this:
Constitutive activation of TRPV3 due to continuous stimulation or the presence of Olmsted mutations causes noticeable skin inflammation due to the increased secretion of pro-inflammatory cytokines from the keratinocytes. Besides, in atopic dermatitis (AD), cytokine release from keratinocytes contributes to the inflammatory environment, which drives many characteristic AD symptoms. Therefore, we determined the effect of TRPV3 activation on cytokine release instead of TRPV3 expression and evaluated whether alpha-mangostin suppressed TRPV3-mediated cytokine secretion in normal human keratinocytes. The levels of secreted cytokines (interleukin (IL)-6, IL-8, and tumor necrosis factor-alpha (TNF-α)) were measured using enzyme-linked Immunosorbent assay (ELISA) kits due to their high sensitivity and quantitation ability. The cells were induced with 300 µM carvacrol, with or without 1 µM alpha-mangostin, and 10 µM 74a.
Figure 5 Alpha-mangostin (α-MG) inhibited carvacrol-induced cytokine release in NHEK cells and rescued carvacrol-induced cell death. (A) Alpha-mangostin inhibited the carvacrol-induced release of IL-8 and IL-6 in NHEK. Cells were induced by 300 µM carvacrol with or without either 1 µM alpha-mangostin or 10 µM 74a for 24 h before the ELISA assay. (B) Alpha-mangostin reduced cell death caused by carvacrol in human keratinocytes. […]

Regarding `COc1c(O)cc2oc3cc(O)c(CC=C(C)C)c(O)c3c(=O)c2c1CC=C(C)C` [Alpha-mangostin], the “Effect on IL-6 levels” value is recorded as “slightly decreased”.
